Data set [1] deals with Trypanosoma brucei rhodesiense. Nature of the data set: Antitrypanosomal activity against Trypanosoma rhodesiense infected in mouse assessed as increase in survival time by 30 days at 40 mg/kg relative to control. It is filed as functional.
The test system of data set [2] is Trypanosoma brucei rhodesiense. Nature of the data set: Antitrypanosomal activity against Trypanosoma rhodesiense infected in mouse assessed as increase in survival time by 30 days at 10 mg/kg relative to control. Type of data set: functional.
Data set [3] has as its system Trypanosoma brucei rhodesiense. Description: Antitrypanosomal activity against Trypanosoma rhodesiense infected in mouse assessed as increase in survival time by 30 days at 20 mg/kg relative to control. It is filed as functional.
In data set [4] the test system is Trypanosoma brucei rhodesiense. Nature of the data set: Antitrypanosomal activity against Trypanosoma rhodesiense infected in mouse assessed as increase in survival time by 30 days at 2.5 mg/kg relative to control. It is filed as functional.
Data set [5] concerns Trypanosoma brucei rhodesiense. Description: Antitrypanosomal activity against Trypanosoma rhodesiense infected in mouse assessed as increase in survival time by 30 days at 320 mg/kg relative to control. Type of data set: functional.
The test system of data set [6] is Trypanosoma brucei rhodesiense. Nature of the data set: Antitrypanosomal activity against Trypanosoma rhodesiense infected in mouse assessed as increase in survival time by 30 days at 5 mg/kg relative to control. Type of data set: functional.
In the next data set the test system is Plasmodium berghei. Nature of the data set: Antimalarial activity against Plasmodium berghei infected in mouse. Type of data set: functional, organism-based.
The test system of data set [7] is Trypanosoma brucei rhodesiense. Description: Antitrypanosomal activity against Trypanosoma rhodesiense infected in mouse assessed as increase in survival time by 30 days at 80 mg/kg relative to control. Type of data set: functional.
The test system of data set [8] is Trypanosoma brucei rhodesiense. Nature of the data set: Antitrypanosomal activity against Trypanosoma rhodesiense infected in mouse assessed as increase in survival time by 30 days at 160 mg/kg relative to control. Type of data set: functional.
Data set [9] relates to Trypanosoma brucei rhodesiense. Description: Antitrypanosomal activity against Trypanosoma rhodesiense infected in mouse assessed as increase in survival time by 30 days at 640 mg/kg relative to control. Type of data set: functional.
For data set [10], the system named is Trypanosoma brucei rhodesiense. Description: Antitrypanosomal activity against Trypanosoma rhodesiense infected in mouse assessed as increase in mean survival time at 160 mg/kg relative to control. Type of data set: functional.
Data set [11] deals with Trypanosoma brucei rhodesiense. Nature of the data set: Antitrypanosomal activity against Trypanosoma rhodesiense infected in mouse assessed as increase in mean survival time at 80 mg/kg relative to control. It is filed as functional.
Data set [12] relates to Trypanosoma brucei rhodesiense. Nature of the data set: Antitrypanosomal activity against Trypanosoma rhodesiense infected in mouse assessed as increase in mean survival time at 40 mg/kg relative to control. Type of data set: functional.
Data set [13] has as its system Trypanosoma brucei rhodesiense. Description: Antitrypanosomal activity against Trypanosoma rhodesiense infected in mouse assessed as increase in mean survival time at 20 mg/kg relative to control. It is filed as functional.
For data set [14], the system named is Mus musculus. Nature of the data set: Acute toxicity in mouse infected with Trypanosoma rhodesiense assessed as death at 320 mg/kg. Type of data set: organism-based. The arrangement: dose 320 mg/kg. The following applies: in vivo.
Data set [15] concerns Mus musculus. Description: Acute toxicity in mouse infected with Trypanosoma rhodesiense assessed as death at 640 mg/kg. Type of data set: organism-based. The arrangement: dose 640 mg/kg. The following applies: in vivo.

Each structure is given as a SMILES string. Activity calls are given as the source filed them. No cut-off for these calls is given here.

Regarding `Cn1c(-c2ccc([C+](N)N)cc2)ccc1-c1ccc([C+](N)N)cc1.[Cl-].[Cl-]`, the MST in [1] was 5 days; in data set [2], 5 days; in data set [3] it was 5 days; in data set [4], 2 days; in data set [5] it was 5 days; in [6] it was 4 days. For the same molecule, the MST in data set [7] and in data set [8] was 5 days throughout. The outcome in the data set on Plasmodium berghei was inactive.
As for `[Cl-].[Cl-].c1cc([C+]2NCCN2)ccc1-c1ccc(-c2ccc([C+]3NCCN3)cc2)s1`, the MST in [9] was found to be 3 days; in data set [5] it was 2 days; in data set [10], 1.6 days. Besides, the result with Plasmodium berghei was inactive.
Regarding `Cn1c(-c2ccc([C+]3NCCN3)cc2)ccc1-c1ccc([C+]2NCCN2)cc1.[Cl-].[Cl-]`, the MST in [1] stood at 4 days; in data set [2], 2 days; in data set [3], 3 days; in [7], 4 days; in data set [8], 5 days. The outcome with Plasmodium berghei was inactive.
On to `[Cl-].[Cl-].c1cc([C+]2NCCCN2)ccc1-c1ccc(-c2ccc([C+]3NCCCN3)cc2)s1`, for which the MST turned out to be 4 days in [1]; 2 days in data set [2]; 3 days in data set [3]; 5 days in [9]; 5 days in data set [5]; 4 days in data set [7]. Moreover, the MST in data set [8] is 4 days. For the same molecule, in the data set on Plasmodium berghei, the outcome was inactive.
In the case of `N=C(N)c1ccc(/C=C/c2ccc(C(=N)N)cc2)cc1` [STILBAMIDINE], the MST in data set [1], in [2], in data set [3], in data set [4], in [9] and in [5] was 5 days throughout. The MST in data set [6], in data set [7] and in data set [8] was 5 days each time.
In the case of `CC1CN[C+](c2ccc(-c3ccc(-c4ccc([C+]5NCC(C)N5)cc4)s3)cc2)N1.[Cl-].[Cl-]` (stereo not drawn), the MST in [11] was 3 days; in [9], 4 days; in data set [5], 4 days; in data set [12] it was 1.2 days; in data set [13], 1 days; in data set [8], 2 days. Also, the result in the data set with Plasmodium berghei was inactive.
With `Cl.Cl.N=C(N)c1ccc(-c2ccc(-c3ccc(C(=N)N)cc3)s2)cc1`, the MST in data set [1] was determined as 5 days; in [2], 5 days; in data set [3] it was 5 days; in [4] it was 3 days; in [6] it was 4 days; in data set [7], 5 days. Besides, the MST in [8] is 5 days. Besides, the outcome with Plasmodium berghei was inactive.
As to `N=C(N)c1ccc(OCCCCCOc2ccc(C(=N)N)cc2)cc1` [PENTAMIDINE], the MST in data set [1] was 5 days; in [2] it was 5 days; in [3], 5 days; in [4], 4 days; in [9], 5 days; in data set [5], 5 days. Further, the MST in [6], in [7] and in [8] was 5 days in each case.
For the molecule `CC1CN[C+](c2ccc(-c3ccc(-c4ccc([C+]5NCC(C)N5)cc4)n3C)cc2)N1.[Cl-].[Cl-]` (stereo not drawn), the MST in [1] is 4 days; in data set [3] it was 3 days; in [9], 5 days; in data set [5] it was 5 days; in [7] it was 5 days; in data set [8] it was 5 days. Moreover, the outcome with Plasmodium berghei was inactive.
Take `N=C(N)c1ccc(/C=C/c2ccc(C(=N)N)cc2O)cc1` [HYDROXYSTILBAMIDINE]: the MST in data set [1], in data set [2], in data set [3], in data set [4], in [9] and in data set [5] was 5 days in each case. Moreover, the MST in [6], in [7] and in data set [8] was 5 days each time.
For the molecule `Cn1c(-c2ccc([C+]3NCCCN3)cc2)ccc1-c1ccc([C+]2NCCCN2)cc1.[Cl-].[Cl-]`, the Activity result with Mus musculus [14] and in the data set on Mus musculus [15] was “Toxic” throughout. Moreover, the MST in data set [1] is 5 days; in data set [2] it was 2 days; in data set [3], 3 days; in data set [7], 5 days; in [8], 3 days. In addition, the result in the data set with Plasmodium berghei was inactive.
Take `N=C(N)c1ccc(-c2ccc(-c3ccc(C(=N)N)cc3)o2)cc1` [FURAMIDINE]: the MST is 5 days in [1]; 5 days in data set [2]; 5 days in [3]; 4 days in data set [4]; 5 days in [9]; 5 days in data set [5]. Further, the MST in data set [6], in data set [7] and in data set [8] was 5 days throughout.

The record behind these values is ChEMBL document CHEMBL3272241, “Synthesis and antiprotozoal activity of 2,5-bis(4-guanylphenyl)thiophenes and -pyrroles” (J Med Chem, 1977).
